Data from patent publication US4971965A, “Antibiotics TAN-1057” (Takeda Chemical Industries, Ltd., priority 1988, dated 1990).
≈ marks a conversion by molar mass, not a printed value. Like-named read-outs stand apart in the source and are kept apart here.

What was measured:
[1] = system: Acinetobacter calcoaceticus IFO 12552; experiment: Antibacterial activity (broth dilution MIC, Table 1); assay type: cell-based
Experimental: (§1) The biological activities of TAN-1057 are described as follows.
(§2) (Note 1) Measurement was conducted by employing a medium consisting of
(§3) Bacto Antibiotic Medium 3 (Difco Laboratories, USA)(17.5 g), Bacto yeast
(§4) extract(Difco Laboratories, USA)(5.0 g) and distilled water(pH
(§5) […])(1000 ml), using approximately 10^5 colony forming unit/ml
(§6) of inoculum, by means of the broth dilution method.

[2] = system: Acinetobacter calcoaceticus IFO 13006; experiment: as above; assay type: cell-based
Experimental: as §1, §2, §3, §4, §5, §6

[3] = system: Aeromonas caviae NCW; experiment: as above; assay type: cell-based
Experimental: as §1, §2, §3, §4, §5, §6

[4] = system: Bacillus cereus FDA 5; experiment: as above; assay type: cell-based
Experimental: as §1, §2, §3, §4, §5, §6

[5] = system: Bacillus megaterium IFO 12108; experiment: as above; assay type: cell-based; details: Priestia megaterium
Experimental: as §1, §2, §3, §4, §5, §6

[6] = system: Bacillus subtilis NIHJ PCI 219; experiment: as above; assay type: cell-based
Experimental: as §1, §2, §3, §4, §5, §6

[7] = system: Escherichia coli LD-2; experiment: as above; assay type: cell-based
Experimental: as §1, §2, §3, §4, §5, §6

[8] = system: Escherichia coli NIHJ JC 2; experiment: as above; assay type: cell-based
Experimental: as §1, §2, §3, §4, §5, §6

[9] = system: Klebsiella pnemoniae IFO 3317; experiment: as above; assay type: cell-based
Experimental: as §1, §2, §3, §4, §5, §6

[10] = system: Micrococcus luteus IFO 12708; experiment: as above; assay type: cell-based
Experimental: as §1, §2, §3, §4, §5, §6

[11] = system: Proteus vulgaris IFO 3988; experiment: as above; assay type: cell-based
Experimental: as §1, §2, §3, §4, §5, §6

[12] = system: Pseudomonas aeruginosa IFO 3080; experiment: as above; assay type: cell-based
Experimental: as §1, §2, §3, §4, §5, §6

[13] = system: Pseudomonas aeruginosa PAO-8; experiment: as above; assay type: cell-based
Experimental: as §1, §2, §3, §4, §5, §6

[14] = system: Salmonella typhimurium IFO 12529; experiment: as above; assay type: cell-based; details: Salmonella enterica
Experimental: as §1, §2, §3, §4, §5, §6

[15] = system: Staphylococcus aureus FDA 209P; experiment: as above; assay type: cell-based; details: FDA209P
Experimental: as §1, §2, §3, §4, §5, §6

[16] = system: Staphylococcus epidermidis IFO 3762; experiment: as above; assay type: cell-based
Experimental: as §1, §2, §3, §4, §5, §6

[17] = system: Streptococcus faecalis IFO 3989; experiment: as above; assay type: cell-based; details: Enterococcus faecalis
Experimental: as §1, §2, §3, §4, §5, §6

[18] = system: Staphylococcus aureus C10; experiment: Antibacterial activity against clinically isolated S. aureus (agar dilution MIC, Table 2); assay type: cell-based; details: Staphylococcus aureus; strain C10; agar dilution; Mueller Hinton medium; 10^6 CFU/ml; read-out: MIC
Experimental: (§7) DMPPC: Methicillin, KM: Kanamycin, GM: Gentamycin, EM: Erythromycin (Note
(§8) Determined by the agar dilution method. Medium: Mueller Hinton medium
(§9) (Difco, USA) Inoculum Size: 10^6 CFU/ml, 37° C.

[19] = system: Staphylococcus aureus FDA 209P; experiment: as above; assay type: cell-based; details: Staphylococcus aureus, FDA209P; strain FDA 209P; agar dilution; Mueller Hinton medium; 10^6 CFU/ml; read-out: MIC
Experimental: as §7, §8, §9

[20] = system: Staphylococcus aureus N235; experiment: as above; assay type: cell-based; details: Staphylococcus aureus; strain N235; agar dilution; Mueller Hinton medium; 10^6 CFU/ml; read-out: MIC
Experimental: as §7, §8, §9

[21] = system: Staphylococcus aureus N262; experiment: as above; assay type: cell-based; details: Staphylococcus aureus; strain N262; agar dilution; Mueller Hinton medium; 10^6 CFU/ml; read-out: MIC
Experimental: as §7, §8, §9

[22] = system: Staphylococcus aureus N64; experiment: as above; assay type: cell-based; details: Staphylococcus aureus; strain N64; agar dilution; Mueller Hinton medium; 10^6 CFU/ml; read-out: MIC
Experimental: as §7, §8, §9

[23] = system: Staphylococcus aureus TS-65; experiment: as above; assay type: cell-based; details: Staphylococcus aureus, TS65; strain TS-65; agar dilution; Mueller Hinton medium; 10^6 CFU/ml; read-out: MIC
Experimental: as §7, §8, §9

[24] = system: Mycoplasma garisepticum S6; experiment: MIC against Mycoplasma (Table 3); assay type: cell-based; details: S6, 120 h, 10^6 CFU/ml, Hayflick medium, 37° C., 5 days
Description: | Inoculum size: 10^6 CFU/ml

[25] = Acute toxicity in mice (Table 7); details: mouse, in vivo
[26] = pH 5, broth dilution, read-out: Minimum Inhibitory Conc. (MIC)
[27] = pH 7, read-out: Minimum Inhibitory Conc. (MIC)
[28] = pH 9, broth dilution, read-out: Minimum Inhibitory Conc. (MIC)

CN(C(=O)C[C@@H](N)CCCNC(=N)N)[C@H]1CNC(NC(N)=O)=NC1=O [TAN-1057A]
MIC ([1]; IFO12552, pH 5, read-out: Minimum Inhibitory Conc. (MIC)): 12.5 µg/mL (≈ 35.2 µM) | MIC ([1]; IFO12552, pH 7, read-out: Minimum Inhibitory Conc. (MIC)): 6.25 µg/mL (≈ 17.6 µM) | MIC ([1]; IFO12552, pH 9, broth dilution, read-out: Minimum Inhibitory Conc. (MIC)): 1.56 µg/mL (≈ 4.39 µM) | MIC ([2]; IFO13006, pH 5, broth dilution, read-out: Minimum Inhibitory Conc. (MIC)): 1.56 µg/mL (≈ 4.39 µM) | MIC ([2]; IFO13006, pH 7, read-out: Minimum Inhibitory Conc. (MIC)): 6.25 µg/mL (≈ 17.6 µM) | MIC ([2]; IFO13006, pH 9, broth dilution, read-out: Minimum Inhibitory Conc. (MIC)): 1.56 µg/mL (≈ 4.39 µM) | MIC [3, 26]: 100 µg/mL (≈ 281 µM) | MIC [3, 27]: 6.25 µg/mL (≈ 17.6 µM) | MIC [3, 28]: 1.56 µg/mL (≈ 4.39 µM) | MIC ([4]; FDA5, pH 5, read-out: Minimum Inhibitory Conc. (MIC)): 6.25 µg/mL (≈ 17.6 µM) | MIC ([4]; FDA5, pH 7, broth dilution, read-out: Minimum Inhibitory Conc. (MIC)): 25 µg/mL (≈ 70.3 µM) | MIC ([4]; FDA5, pH 9, read-out: Minimum Inhibitory Conc. (MIC)): 3.13 µg/mL (≈ 8.81 µM) | MIC ([5]; IFO12108, pH 7, read-out: Minimum Inhibitory Conc. (MIC)): 12.5 µg/mL (≈ 35.2 µM) | MIC ([5]; IFO12108, pH 5, broth dilution, read-out: Minimum Inhibitory Conc. (MIC)): 25 µg/mL (≈ 70.3 µM) | MIC ([5]; IFO12108, pH 9, broth dilution, read-out: Minimum Inhibitory Conc. (MIC)): 1.56 µg/mL (≈ 4.39 µM) | MIC [6, 26]: 50 µg/mL (≈ 141 µM) | MIC [6, 27]: 12.5 µg/mL (≈ 35.2 µM) | MIC [6, 28]: 1.56 µg/mL (≈ 4.39 µM) | MIC ([7]; LD2, pH 5, read-out: Minimum Inhibitory Conc. (MIC)): 100 µg/mL (≈ 281 µM) | MIC ([7]; LD2, pH 7, read-out: Minimum Inhibitory Conc. (MIC)): 25 µg/mL (≈ 70.3 µM) | MIC ([7]; LD2, pH 9, read-out: Minimum Inhibitory Conc. (MIC)): 1.56 µg/mL (≈ 4.39 µM) | MIC ([8]; NIHJJC2, pH 5, read-out: Minimum Inhibitory Conc. (MIC)): > 100 µg/mL | MIC ([8]; NIHJJC2, pH 7, read-out: Minimum Inhibitory Conc. (MIC)): > 100 µg/mL | MIC ([8]; NIHJJC2, pH 9, read-out: Minimum Inhibitory Conc. (MIC)): 25 µg/mL (≈ 70.3 µM) | MIC ([9]; IFO3317, pH 5, read-out: Minimum Inhibitory Conc. (MIC)): > 100 µg/mL | MIC ([9]; IFO3317, pH 7, read-out: Minimum Inhibitory Conc. (MIC)): > 100 µg/mL | MIC ([9]; IFO3317, pH 9, read-out: Minimum Inhibitory Conc. (MIC)): 100 µg/mL (≈ 281 µM) | MIC ([10]; IFO12708, pH 7, read-out: Minimum Inhibitory Conc. (MIC)): 1.56 µg/mL (≈ 4.39 µM) | MIC ([10]; IFO12708, pH 9, read-out: Minimum Inhibitory Conc. (MIC)): 0.2 µg/mL (≈ 0.563 µM) | MIC ([11]; IFO3988, pH 5, read-out: Minimum Inhibitory Conc. (MIC)): > 100 µg/mL | MIC ([11]; IFO3988, pH 7, read-out: Minimum Inhibitory Conc. (MIC)): > 100 µg/mL | MIC ([11]; IFO3988, pH 9, read-out: Minimum Inhibitory Conc. (MIC)): 50 µg/mL (≈ 141 µM) | MIC ([12]; IFO3080, pH 5, read-out: Minimum Inhibitory Conc. (MIC)): > 100 µg/mL | MIC ([12]; IFO3080, pH 7, read-out: Minimum Inhibitory Conc. (MIC)): > 100 µg/mL | MIC ([12]; IFO3080, pH 9, read-out: Minimum Inhibitory Conc. (MIC)): 100 µg/mL (≈ 281 µM) | MIC ([13]; PAO8, pH 5, read-out: Minimum Inhibitory Conc. (MIC)): 100 µg/mL (≈ 281 µM) | MIC ([13]; PAO8, pH 7, read-out: Minimum Inhibitory Conc. (MIC)): > 100 µg/mL | MIC ([13]; PAO8, pH 9, read-out: Minimum Inhibitory Conc. (MIC)): 100 µg/mL (≈ 281 µM) | MIC ([14]; pH 5, read-out: Minimum Inhibitory Conc. (MIC)): > 100 µg/mL | MIC [14, 27]: > 100 µg/mL | MIC ([14]; pH 9, read-out: Minimum Inhibitory Conc. (MIC)): 25 µg/mL (≈ 70.3 µM) | MIC [15, 27]: 3.13 µg/mL (≈ 8.81 µM) | MIC [15, 28]: < 0.1 µg/mL | MIC ([16]; IFO3762, pH 5, read-out: Minimum Inhibitory Conc. (MIC)): > 100 µg/mL | MIC ([16]; IFO3762, pH 7, read-out: Minimum Inhibitory Conc. (MIC)): 1.56 µg/mL (≈ 4.39 µM) | MIC ([16]; IFO3762, pH 9, read-out: Minimum Inhibitory Conc. (MIC)): < 0.1 µg/mL | MIC ([17]; IFO3989, pH 7, read-out: Minimum Inhibitory Conc. (MIC)): 12.5 µg/mL (≈ 35.2 µM) | MIC ([17]; IFO3989, pH 9, read-out: Minimum Inhibitory Conc. (MIC)): 3.13 µg/mL (≈ 8.81 µM) | MIC ([17]; IFO3989, pH 5, broth dilution, read-out: Minimum Inhibitory Conc. (MIC)): > 100 µg/mL | MIC [18]: 0.78 µg/mL (≈ 2.19 µM) | MIC [19]: 0.39 µg/mL (≈ 1.1 µM) | MIC [20]: 1.56 µg/mL (≈ 4.39 µM) | MIC [21]: 0.78 µg/mL (≈ 2.19 µM) | MIC [22]: 0.78 µg/mL (≈ 2.19 µM) | MIC [23]: 0.78 µg/mL (≈ 2.19 µM) | MIC [24]: 3.13 µg/mL (≈ 8.81 µM) | LD50 ([25]; Oral): > 400 mg/kg | LD50 ([25]; ip, Intraperitoneal): ~100 mg/kg
